Laboratory results from patent US4816474A, “Amino substituted thienothiopyran derivatives, composition containing them, and method of using them to stimulate presynaptic dopamine receptors” (Ciba-Geigy Corporation, priority 1987, dated 1989).
Counter-ions that a name gives are not always drawn.

Columns and labels:
[1] = system: presynaptic dopamine receptor (dopamine autoreceptor); experiment: GBL model in the rat: in-vivo presynaptic dopamine agonist (dopamine autoreceptor agonist) activity, inhibition of GBL-induced DOPA accumulation; conditions: dose inhibiting DOPA accumulation by 50%
Protocol: The in-vivo presynaptic dopamine agonist activity (also called dopamine autoreceptor agonist activity) is determined in the rat gamma-butyrolactone (GBL) model by a modification of the procedure described by Walters and Roth, Naunyn Schmiedeberg's Arch. Pharmacol. 296, 5 (1976). In this model, a presynaptic dopamine agonist inhibits the GBL-induced accumulation of the dopamine precursor DOPA in the brain after pretreatment with 3-hydroxybenzylhydrazine (NDS-1015), a DOPA decarboxylase inhibitor.
Test compounds are dissolved in 0.9% saline, with sodium metabisulfite to prevent oxidation, if required. Animals are treated with i.p. injections of solutions of test compounds or saline, followed by gamma-butyrolactone (GBL, 750 mg/kg i.p.) or saline for control animals 15 minutes later, and finally with NSD-1015 (100 mg/kg i.p.) 5 minutes after the administration of GBL. Thirty minutes after the administration of NSD-1015, animals are sacrificed, brains are removed, and striatae are isolated, then frozen at -70° C. until deproteinization, extraction and analysis. The ED50 (dose at which the DOPA accumulation is inhibited by 50%) values are determined by plotting the percent inhibition of DOPA accumulation versus log10 of the dose of test compound administered. The same method is also applicable to oral administration of the test compounds.

[2] = biological target: presynaptic dopamine receptor; experiment: 3H-ADTN presynaptic dopamine receptor binding assay (displacement of 3H-ADTN from calf caudate nucleus membranes); conditions: inhibition of specific binding of 0.2 nM 3H-ADTN by 50%, 60 min, 25° C.
Protocol: The presynaptic dopamine receptor binding properties indicative of the presynaptic dopamine receptor regulatory, e.g. agonistic activity, of the compounds of the invention can be determined in the dopamine binding assay in vitro by the following method involving the displacement of the dopamine agonist 2-amino-6,7-dihydroxy-1,2,3,4-tetrahydronaphthalene (^3 H-ADTN) from membranes of calf-caudate nucleus.
In the binding assay, triplicate 2 ml samples (equivalent to 5 mg/ml of brain tissue) of the calf brain caudate nucleus membrane suspension are incubated for 60 minutes at 25° C. with 0.2 nM ^3 H-ADTN without or in the presence of various concentrations of test compound in solvent. The reaction is terminated by filtering with 5 ml of cold 50 mM Tris-HCl buffer pH 7.7. The filters are placed in scintillation vials with 5 ml of scintillation solution, disrupted by vigorous mechanical shaking for 90 minutes, and counted for radioactivity.
The IC50 values which represent the concentration of test compounds required to inhibit the specific binding of 0.2 nM ^3 H-ADTN by 50% are determined graphically.

| IC50 [2] [nM] | SMILES | ED50 in the GBL model ([1]; i.p.) | ED50 in the GBL model ([1]; p.o.) [mg/kg] |
| --- | --- | --- | --- |
| – | CCCN(CCC)C1CSc2sccc2C1 (stereo not drawn) [5-dipropylamino-5,6-dihydro-4H-thieno[2,3-b]thiopyran] | about 2.6 mg/kg | ~5.6 |
| ~150 | CCCN(CCC)C1CSc2sccc2C1 (stereo not drawn) [N,N-dipropyl-5,6-dihydro-4H-thieno[2,3-b]thiopyran-5-amine hydrochloride] | – | – |
